Key:
human CYP4F2 = biological target: T1, human CYP4F2 (Homo sapiens, UniProt P78329); assay: CYP4F2 inhibition test (Test Example 1); format: biochemical; conditions: Escherichia coli membrane fraction expressing human CYP4F2, 2.5 μM luciferine derivative, room temperature 60 minutes, luminescence
T1 construct: host or cells: Escherichia coli (membrane fraction)
T1 sequence (P78329 5-520): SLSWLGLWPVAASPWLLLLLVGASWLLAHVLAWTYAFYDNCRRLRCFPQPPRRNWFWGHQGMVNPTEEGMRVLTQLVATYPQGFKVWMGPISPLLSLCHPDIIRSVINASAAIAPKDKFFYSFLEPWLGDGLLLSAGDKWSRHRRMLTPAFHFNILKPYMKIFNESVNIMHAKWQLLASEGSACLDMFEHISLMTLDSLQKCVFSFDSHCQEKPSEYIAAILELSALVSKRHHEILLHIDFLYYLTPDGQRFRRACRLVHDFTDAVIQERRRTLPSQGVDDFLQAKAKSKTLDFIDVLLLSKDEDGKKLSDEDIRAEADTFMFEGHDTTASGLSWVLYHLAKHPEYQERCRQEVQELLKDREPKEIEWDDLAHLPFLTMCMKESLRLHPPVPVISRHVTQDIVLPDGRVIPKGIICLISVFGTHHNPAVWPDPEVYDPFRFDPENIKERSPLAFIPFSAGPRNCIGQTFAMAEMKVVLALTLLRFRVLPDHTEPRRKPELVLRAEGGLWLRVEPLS
Procedure, shortened: (§1)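 Luminescent read-out after adding luciferin detection reagent to a 60 min room-temperature reaction of compound with human CYP-expressing E. coli membrane fraction (100 μg/mL). Substrate and buffer differ: 60 μM luciferin derivative in Tris pH 7.5 with NADPH regeneration for CYP4A11; 2.5 μM in KPO4 pH 7.4 with 1 mM NADPH for CYP4F2.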

human CYP4A11 = biological target: T2, human CYP4A11 (Homo sapiens, UniProt Q02928); assay: CYP4A11 inhibition test (Test Example 1); format: biochemical; conditions: Escherichia coli membrane fraction expressing human CYP4A11, 60 μM luciferine derivative, room temperature 60 minutes, luminescence
T2 construct: host or cells: Escherichia coli (membrane fraction)
T2 sequence (Q02928 5-519): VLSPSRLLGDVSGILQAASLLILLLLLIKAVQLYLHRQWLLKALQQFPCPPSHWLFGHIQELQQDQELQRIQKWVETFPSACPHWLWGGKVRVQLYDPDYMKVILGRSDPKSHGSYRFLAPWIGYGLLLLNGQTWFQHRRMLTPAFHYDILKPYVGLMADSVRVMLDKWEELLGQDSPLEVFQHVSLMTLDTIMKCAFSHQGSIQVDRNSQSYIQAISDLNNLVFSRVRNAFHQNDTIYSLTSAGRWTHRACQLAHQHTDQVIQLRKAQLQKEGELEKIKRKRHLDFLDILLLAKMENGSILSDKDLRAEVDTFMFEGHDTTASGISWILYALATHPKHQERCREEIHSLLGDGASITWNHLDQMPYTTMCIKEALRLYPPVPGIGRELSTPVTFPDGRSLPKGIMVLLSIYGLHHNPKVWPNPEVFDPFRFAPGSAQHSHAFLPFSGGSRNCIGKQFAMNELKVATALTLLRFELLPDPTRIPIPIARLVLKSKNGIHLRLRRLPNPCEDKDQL
Procedure, shortened: as §1

SMILES | IC50 (human CYP4F2) [nM] | IC50 (human CYP4A11) [nM]
CN(C)S(=O)(=O)c1ccc(COc2ccc(-c3ccn[nH]3)nc2)cc1 [Example 25-3, N,N-Dimethyl-4-{[6-(1H-pyrazol-5-yl)pyridin-3-yl]oxymethyl}benzenesulfonamide] | 140 | 1700
CS(=O)(=O)c1cccc(COc2cnc(-c3ccn[nH]3)c(F)c2)c1 [Example 25-5] | 110 | 45
FC(F)c1cc(COc2ccc(-c3ccn[nH]3)nc2)ccn1 [Example 25-6] | 62 | 95
FC(F)c1cncc(COc2ccc(-c3ccn[nH]3)nc2)c1 [Example 25-7] | 57 | 910
c1cc(-c2ccc(OCc3cncc(-n4nccn4)c3)cn2)[nH]n1 [Example 25-8] | 230 | 2500
c1cc(-c2ccc(OCc3ccnc(-n4cncn4)c3)cn2)[nH]n1 [Example 25-9] | 12 | 1300
COc1ccc(COc2ccc(-c3ccn[nH]3)nc2)cc1S(C)(=O)=O [Example 25-10] | 20 | 1100
O=c1ccc2cc(COc3ccc(-c4ccn[nH]4)nc3)ccc2o1 [Example 25-11] | 3 | 1600
FC(F)(F)c1cc(COc2ccc(-c3ccn[nH]3)nc2)cc(C(F)(F)F)c1 [Example 25-12] | 1600 | 75
CC1(C)Cc2cc(COc3ccc(-c4ccn[nH]4)nc3)cc(Cl)c2O1 [Example 25-13] | 190 | 36
c1ccc2cc(COc3ccc(-c4ccn[nH]4)nc3)ccc2c1 [Example 25-14] | 16 | 410
c1cc(-c2ccc(OCc3ccc4nccnc4c3)cn2)[nH]n1 [Example 25-15] | 11 | 2700
COc1ccc2ccc(COc3ccc(-c4ccn[nH]4)nc3)cc2n1 [Example 25-16] | 3.2 | 2200
CS(=O)(=O)c1ccc(COc2ccc(-c3ccn[nH]3)nc2)cc1 [Example 25-18] | 96 | 6000
FC(F)(F)Sc1cccc(COc2ccc(-c3ccn[nH]3)nc2)c1 [Example 25-19] | 83 | 100
FC(F)(F)c1ccc(COc2ccc(-c3ccn[nH]3)nc2)cc1 [Example 25-20] | 14 | 1200
Cc1ccc(S(=O)(=O)c2ccc(COc3ccc(-c4ccn[nH]4)nc3)cc2)cc1 [Example 25-21] | 40 | 2400
FC(F)(F)Oc1ccc(COc2ccc(-c3ccn[nH]3)nc2)cc1 [Example 25-22] | 9.2 | 1500
FC(F)(F)Oc1cccc(COc2ccc(-c3ccn[nH]3)nc2)c1 [Example 25-23] | 52 | 160
CC1CCCC(C)N1C(=O)c1cccc(COc2ccc(-c3ccn[nH]3)nc2)c1 (stereo not shown) [Example 25-24] | 350 | 2500
C(=C\c1ccc(COc2ccc(-c3ccn[nH]3)nc2)cc1)/c1ccccc1 [Example 25-28] | 5.1 | > 50000
FC(F)(F)c1cccc(COc2ccc(-c3ccn[nH]3)nc2)c1 [Example 25-29] | 88 | 67
CC(=O)N1CCC(COc2ccc(-c3cn[nH]c3)nc2)CC1 [Example 39-1, 1-(4-{[6-(1H-Pyrazol-4-yl)pyridin-3-yl]oxymethyl}piperidin-1-yl)ethanone] | 240 | 220

Reference: US20210040062A1, “AZOLE-SUBSTITUTED PYRIDINE COMPOUND” (TAISHO PHARMACEUTICAL CO., LTD., priority 2016, published 2021)
